Patent US12194048B2, “Use of pyrrolopyridine derivatives for preventing or treating inflammatory diseases” (VORONOI CO., LTD., priority 2020, dated 2025)

Legend:
ALK(L1196M) = molecular target: T1, ALK(L1196M) (Homo sapiens, UniProt Q9UM73, L1196M); experiment: scanMAX Kinase analysis panel (DiscoverX); format: binding; conditions: drug 1 μM in DMSO; from % control
T1 construct: purchased DiscoverX scanMAX Kinase analysis panel
Excerpt: (§1) [(Example compound−positive control)/(negative control−positive control)×100]

CAMK2D = molecular target: T2, CAMK2D (Homo sapiens, UniProt Q13557); experiment: scanMAX Kinase analysis panel (DiscoverX); format: binding; conditions: drug 1 μM in DMSO; from % control
T2 construct: purchased DiscoverX scanMAX Kinase analysis panel
Excerpt: as §1

CSNK1A1 = molecular target: T3, CSNK1A1 (Homo sapiens, UniProt P48729); experiment: scanMAX Kinase analysis panel (DiscoverX); format: binding; conditions: drug 1 μM in DMSO; from % control
T3 construct: purchased DiscoverX scanMAX Kinase analysis panel
Excerpt: as §1

[1] = molecular target: T4, JAK1(JH2domain-pseudokinase) (Homo sapiens, UniProt P23458); experiment: scanMAX Kinase analysis panel (DiscoverX); format: binding; conditions: drug 1 μM in DMSO; from % control
T4 construct: JAK1 (JH2domain-pseudokinase); purchased DiscoverX
Excerpt: as §1

JNK1 = molecular target: T5, JNK1 (Homo sapiens, UniProt P45983); experiment: scanMAX Kinase analysis panel (DiscoverX); format: binding; conditions: drug 1 μM in DMSO; from % control
T5 construct: purchased DiscoverX scanMAX Kinase analysis panel
Excerpt: as §1

JNK2 = molecular target: T6, JNK2 (Homo sapiens, UniProt P45984); experiment: scanMAX Kinase analysis panel (DiscoverX); format: binding; conditions: drug 1 μM in DMSO; from % control
T6 construct: purchased DiscoverX
Excerpt: as §1

JNK3 = molecular target: T7, JNK3 (Homo sapiens, UniProt P53779); experiment: scanMAX Kinase analysis panel (DiscoverX); format: binding; conditions: drug 1 μM in DMSO; from % control
T7 construct: purchased DiscoverX
Excerpt: as §1

LRRK2 = molecular target: T8, LRRK2 (Homo sapiens, UniProt Q5S007); experiment: scanMAX Kinase analysis panel (DiscoverX); format: binding; conditions: drug 1 μM in DMSO; from % control
T8 construct: purchased DiscoverX
Excerpt: as §1

MYLK = molecular target: T9, MYLK (Homo sapiens, UniProt Q15746); experiment: scanMAX Kinase analysis panel (DiscoverX); format: binding; conditions: drug 1 μM in DMSO; from % control
T9 construct: purchased DiscoverX scanMAX Kinase analysis panel
Excerpt: as §1

PHKG1 = molecular target: T10, PHKG1 (Homo sapiens, UniProt Q16816); experiment: scanMAX Kinase analysis panel (DiscoverX); format: binding; conditions: drug 1 μM in DMSO; from % control
T10 construct: purchased DiscoverX scanMAX Kinase analysis panel
Excerpt: as §1

PLK4 = molecular target: T11, PLK4 (Homo sapiens, UniProt O00444); experiment: scanMAX Kinase analysis panel (DiscoverX); format: binding; conditions: drug 1 μM in DMSO; from % control
T11 construct: purchased DiscoverX
Excerpt: as §1

THP-1 cells = experiment: Pro-inflammatory cytokine expression in LPS-stimulated THP-1 cells; format: cell-based; conditions: pre-treated 1 hour, then LPS 0.5 μg/ml 24 hours; FIG. 1a
[2] = tested on: 2,4,6-trinitrobenzenesulfonic acid (TNBS) induced colitis mouse model; experiment: TNBS induced colitis mouse model; format: in vivo, male BALB/c mice; conditions: 60 mpk orally once daily
Protocol: In the present experiment, male BALB/c mice (8 weeks old) were used. The experimental animals were subjected to dietary restriction for one day prior to treating with TNBS. Bowel inflammation was induced by administering TNBS (TNBS solution, 1 mg in 0.1 mL 50% ethanol) by submucosal injection in the colon. For the control animals in which inflammation was not induced, only 0.9% NaCl solution without TNBS was administered by submucosal injection in the colon.
The comparative compound, cyclosporine A, was orally administered once daily, and the TNF-α blocker (Enbrel®) was administered intraperitoneally once daily.
During the test, changes in body weight, occult bleeding in stool, and stool consistently were examined every day, and serum was collected on day 5 of the experiment. Bowel tissue was collected at the termination of the experiment to measure the weight of the bowel tissue, degree of polymorphonuclear leukocyte (PMN) deposition and degree of myeloperoxidase (MPO) expression.

[3] = Metabolic stability (MS) evaluation; format: in vitro ADME
CYP 1A2 = CYP 1A2 (Homo sapiens, UniProt P05177); experiment: CYP inhibition assay (luminescence); format: in vitro ADME
Excerpt: (§2) DDI (Drug Interaction) can be observed in a CYP inhibition assay. A luminescence assay was used to measure and evaluate inhibition activity against 1A2, 2C9, 2C19, 2D6 and 3A4, which are important Phase 1 drug metabolism CYP450 enzymes involved in drug metabolism.

CYP 2C19 = CYP 2C19 (Homo sapiens, UniProt P33261); experiment: CYP inhibition assay (luminescence); format: in vitro ADME
Excerpt: as §2

CYP 2C9 = CYP 2C9 (Homo sapiens, UniProt P11712); experiment: CYP inhibition assay (luminescence); format: in vitro ADME
Excerpt: as §2

CYP 2D6 = CYP 2D6 (Homo sapiens, UniProt P10635); experiment: CYP inhibition assay (luminescence); format: in vitro ADME
Excerpt: as §2

CYP 3A4 = CYP 3A4 (Homo sapiens, UniProt P08684); experiment: CYP inhibition assay (luminescence); format: in vitro ADME
Excerpt: as §2

hERG = hERG (Homo sapiens, UniProt Q12809); experiment: hERG analysis
[4] = Plasma stability evaluation; format: in vitro ADME; conditions: LC-MS/MS
Protocol: Hydrolysis in plasma is a factor which, together with metabolic reactions, impacts fast in-vivo decomposition of a drug and short half-life thereof; plasma stability is a test which assesses these. The compound at a certain concentration was added to plasma and reacted for a certain period, then collected, and LC-MS/MS was used to measure the percentage of compound remaining relative to the amount prior to the reaction.

[5] = tested on: IMQ-induced psoriasis-like skin inflammation model; experiment: Topical treatment in imiquimod (IMQ)-induced psoriasis-like skin inflammation; format: in vivo, BALB/c mice
Protocol: Dexamethasone (0.15%), the reference compound, was applied topically at 20 μL/mouse on the right ear once daily (QD) during the same study period.
Fifteen (15) mg imiquimod (IMQ) cream (5%) (Aldara; 3M Pharmaceuticals) was topically administered once daily (QD) on the right ear one hour after treatment from Day 1 to Day 9 for 9 consecutive days, translating to a daily dose of 0.75 mg of the active compound.
Ear swelling was measured on Day 0 and thereafter 30 min before dosing on Days 2, 4, 6 and 8. On Day 10, ear swelling was measured 24 hours after the last dosing.

[6] = tested on: IMQ-induced psoriasis-like skin inflammation model; experiment: Oral treatment in imiquimod (IMQ)-induced psoriasis-like skin inflammation; format: in vivo, BALB/c mice
Protocol: The positive control, methotrexate at 2 mg/kg and tofacitinib at 5 mg/kg were administered by oral gavage twice (BID) daily during the same study period.
Fifteen (15) mg Imiquimod (IMQ) cream (5%) (Aldara; 3M Pharmaceuticals) was topically (TOP) administered once daily (QD) on the right ear one hour after treatment from Day 1 to Day 9 for 9 consecutive days, translating to a daily dose of 0.75 mg of the active compound. Ear swelling was measured on Day 0 and thereafter 30 min before dosing on Days 2, 4, 6 and 8. On Day 10, ear swelling was measured 24 hours after the last dosing.

CYP 3A4, sequence (P08684 whole entry): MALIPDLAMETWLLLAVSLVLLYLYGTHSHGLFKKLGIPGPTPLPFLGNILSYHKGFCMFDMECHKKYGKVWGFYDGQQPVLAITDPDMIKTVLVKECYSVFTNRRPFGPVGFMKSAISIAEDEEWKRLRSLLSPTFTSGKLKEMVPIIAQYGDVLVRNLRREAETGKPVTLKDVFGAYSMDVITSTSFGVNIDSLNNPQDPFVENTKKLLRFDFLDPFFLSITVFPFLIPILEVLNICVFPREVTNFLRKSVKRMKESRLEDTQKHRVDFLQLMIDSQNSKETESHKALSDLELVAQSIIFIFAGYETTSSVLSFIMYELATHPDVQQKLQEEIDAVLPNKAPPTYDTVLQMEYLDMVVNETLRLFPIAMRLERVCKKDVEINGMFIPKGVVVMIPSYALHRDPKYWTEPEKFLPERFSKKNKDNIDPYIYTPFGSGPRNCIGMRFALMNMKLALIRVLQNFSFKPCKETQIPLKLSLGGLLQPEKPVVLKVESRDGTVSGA
hERG, sequence (Q12809 whole entry): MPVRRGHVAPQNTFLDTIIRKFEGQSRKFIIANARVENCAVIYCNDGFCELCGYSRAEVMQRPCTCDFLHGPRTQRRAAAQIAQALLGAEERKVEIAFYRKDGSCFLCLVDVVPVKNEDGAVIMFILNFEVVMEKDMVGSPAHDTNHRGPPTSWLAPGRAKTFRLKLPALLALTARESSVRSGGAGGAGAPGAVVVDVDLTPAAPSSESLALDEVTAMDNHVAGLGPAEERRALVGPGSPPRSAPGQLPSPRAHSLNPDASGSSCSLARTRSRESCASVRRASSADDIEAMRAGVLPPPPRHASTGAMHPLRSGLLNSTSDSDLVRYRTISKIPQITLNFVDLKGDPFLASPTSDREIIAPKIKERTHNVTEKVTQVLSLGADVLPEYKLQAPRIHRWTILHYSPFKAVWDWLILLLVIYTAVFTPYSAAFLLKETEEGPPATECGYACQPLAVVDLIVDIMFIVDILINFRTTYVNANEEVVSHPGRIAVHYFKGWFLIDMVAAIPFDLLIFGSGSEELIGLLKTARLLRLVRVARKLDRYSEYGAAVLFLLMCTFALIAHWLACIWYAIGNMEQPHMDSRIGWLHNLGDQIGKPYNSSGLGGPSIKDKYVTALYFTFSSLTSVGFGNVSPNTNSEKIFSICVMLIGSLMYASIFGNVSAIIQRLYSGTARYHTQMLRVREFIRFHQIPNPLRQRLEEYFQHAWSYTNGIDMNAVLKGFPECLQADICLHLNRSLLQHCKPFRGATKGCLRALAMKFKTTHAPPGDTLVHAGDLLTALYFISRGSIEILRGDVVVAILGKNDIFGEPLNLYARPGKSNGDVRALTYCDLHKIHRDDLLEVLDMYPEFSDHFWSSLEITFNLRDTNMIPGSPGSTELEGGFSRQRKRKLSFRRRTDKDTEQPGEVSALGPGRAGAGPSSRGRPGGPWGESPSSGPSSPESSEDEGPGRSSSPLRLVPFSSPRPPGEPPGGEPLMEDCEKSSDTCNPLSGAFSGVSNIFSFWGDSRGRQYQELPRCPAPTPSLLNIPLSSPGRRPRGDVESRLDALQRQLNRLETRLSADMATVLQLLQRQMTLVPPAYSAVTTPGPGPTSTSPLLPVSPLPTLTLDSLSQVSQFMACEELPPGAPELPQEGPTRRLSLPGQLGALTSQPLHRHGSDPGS
T7 sequence (P53779 whole entry): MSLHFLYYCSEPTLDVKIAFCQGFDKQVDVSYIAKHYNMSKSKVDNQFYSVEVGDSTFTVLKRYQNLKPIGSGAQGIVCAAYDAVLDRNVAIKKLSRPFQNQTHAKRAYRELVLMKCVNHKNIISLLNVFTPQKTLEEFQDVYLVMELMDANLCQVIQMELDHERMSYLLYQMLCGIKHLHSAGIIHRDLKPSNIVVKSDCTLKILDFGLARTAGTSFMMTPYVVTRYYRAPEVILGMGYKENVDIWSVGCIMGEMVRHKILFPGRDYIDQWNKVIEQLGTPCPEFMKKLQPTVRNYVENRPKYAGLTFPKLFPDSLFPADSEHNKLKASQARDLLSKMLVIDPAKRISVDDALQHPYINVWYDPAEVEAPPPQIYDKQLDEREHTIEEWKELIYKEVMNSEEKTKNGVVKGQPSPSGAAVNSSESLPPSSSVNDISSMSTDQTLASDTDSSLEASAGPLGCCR
CYP 2C9, sequence (P11712 whole entry): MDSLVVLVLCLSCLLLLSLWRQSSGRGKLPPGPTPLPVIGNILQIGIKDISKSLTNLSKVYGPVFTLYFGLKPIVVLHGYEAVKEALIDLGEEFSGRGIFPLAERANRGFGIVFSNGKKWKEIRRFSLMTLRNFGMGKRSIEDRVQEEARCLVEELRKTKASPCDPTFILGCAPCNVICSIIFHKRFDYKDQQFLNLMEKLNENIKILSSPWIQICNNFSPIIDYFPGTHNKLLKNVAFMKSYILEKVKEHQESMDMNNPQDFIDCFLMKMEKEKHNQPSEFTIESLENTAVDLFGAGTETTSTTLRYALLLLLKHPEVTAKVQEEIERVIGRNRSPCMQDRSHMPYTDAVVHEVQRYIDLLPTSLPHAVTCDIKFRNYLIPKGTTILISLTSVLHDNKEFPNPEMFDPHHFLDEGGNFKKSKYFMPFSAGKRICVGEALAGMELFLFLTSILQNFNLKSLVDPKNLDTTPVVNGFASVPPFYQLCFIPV
CYP 1A2, sequence (P05177 whole entry): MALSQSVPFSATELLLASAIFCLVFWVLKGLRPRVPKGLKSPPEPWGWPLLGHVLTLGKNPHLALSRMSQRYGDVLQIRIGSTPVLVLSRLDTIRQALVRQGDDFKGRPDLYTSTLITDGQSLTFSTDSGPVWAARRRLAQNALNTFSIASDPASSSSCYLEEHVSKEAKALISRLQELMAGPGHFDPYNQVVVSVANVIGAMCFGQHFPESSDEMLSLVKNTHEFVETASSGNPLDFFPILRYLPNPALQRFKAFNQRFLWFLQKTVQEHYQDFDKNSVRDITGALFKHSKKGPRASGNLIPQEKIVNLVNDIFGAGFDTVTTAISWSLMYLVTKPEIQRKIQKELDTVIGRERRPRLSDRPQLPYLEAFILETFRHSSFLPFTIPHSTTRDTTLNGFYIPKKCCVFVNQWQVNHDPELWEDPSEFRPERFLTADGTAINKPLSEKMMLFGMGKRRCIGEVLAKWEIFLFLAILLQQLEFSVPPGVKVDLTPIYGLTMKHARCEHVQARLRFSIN
T4 sequence (P23458 583-855 limits assumed): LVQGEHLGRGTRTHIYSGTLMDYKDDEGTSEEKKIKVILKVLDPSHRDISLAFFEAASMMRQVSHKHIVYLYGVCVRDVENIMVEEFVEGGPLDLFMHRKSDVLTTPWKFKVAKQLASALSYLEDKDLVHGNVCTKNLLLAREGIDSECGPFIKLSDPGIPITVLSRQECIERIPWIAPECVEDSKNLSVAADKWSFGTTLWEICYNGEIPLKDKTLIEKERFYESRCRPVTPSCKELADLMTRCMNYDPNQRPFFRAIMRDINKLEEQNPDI
T3 sequence (P48729 whole entry): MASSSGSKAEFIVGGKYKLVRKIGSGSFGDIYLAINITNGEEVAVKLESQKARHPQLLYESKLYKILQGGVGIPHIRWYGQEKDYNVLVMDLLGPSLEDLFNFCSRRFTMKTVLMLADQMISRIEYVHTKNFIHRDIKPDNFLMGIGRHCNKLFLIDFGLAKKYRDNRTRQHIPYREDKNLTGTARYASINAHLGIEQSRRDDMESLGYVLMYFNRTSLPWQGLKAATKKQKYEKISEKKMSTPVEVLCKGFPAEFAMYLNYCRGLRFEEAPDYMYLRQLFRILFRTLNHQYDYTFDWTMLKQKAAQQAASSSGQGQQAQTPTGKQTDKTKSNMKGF
T11 sequence (O00444 whole entry): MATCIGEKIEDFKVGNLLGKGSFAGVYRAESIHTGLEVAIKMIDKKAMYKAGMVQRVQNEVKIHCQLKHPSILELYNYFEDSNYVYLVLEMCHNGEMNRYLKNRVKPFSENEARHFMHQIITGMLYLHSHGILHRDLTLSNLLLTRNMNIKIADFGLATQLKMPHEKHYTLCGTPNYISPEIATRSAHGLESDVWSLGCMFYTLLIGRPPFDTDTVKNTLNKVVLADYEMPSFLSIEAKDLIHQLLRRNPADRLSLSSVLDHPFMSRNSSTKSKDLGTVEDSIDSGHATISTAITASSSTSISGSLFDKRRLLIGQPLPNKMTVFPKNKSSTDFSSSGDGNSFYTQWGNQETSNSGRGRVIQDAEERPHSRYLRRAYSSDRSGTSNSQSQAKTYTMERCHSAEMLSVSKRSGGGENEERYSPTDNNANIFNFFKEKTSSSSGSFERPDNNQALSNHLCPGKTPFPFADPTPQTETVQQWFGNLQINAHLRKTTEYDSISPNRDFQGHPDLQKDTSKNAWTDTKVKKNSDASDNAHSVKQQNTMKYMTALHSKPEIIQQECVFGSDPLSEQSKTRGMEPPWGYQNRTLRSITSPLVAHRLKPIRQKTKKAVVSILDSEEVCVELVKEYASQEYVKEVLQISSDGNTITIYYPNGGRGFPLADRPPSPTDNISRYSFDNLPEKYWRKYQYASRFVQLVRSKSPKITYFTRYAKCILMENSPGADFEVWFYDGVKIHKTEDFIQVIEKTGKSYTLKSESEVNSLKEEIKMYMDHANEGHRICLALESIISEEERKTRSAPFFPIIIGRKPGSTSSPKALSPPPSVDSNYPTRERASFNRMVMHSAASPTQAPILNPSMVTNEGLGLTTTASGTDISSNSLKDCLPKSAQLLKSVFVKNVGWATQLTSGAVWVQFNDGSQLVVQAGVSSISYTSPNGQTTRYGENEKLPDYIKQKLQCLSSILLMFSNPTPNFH

Question: For CCNc1cc(Nc2ccc(C(=O)N3CCC(N4CCOCC4)CC3)cc2OC)nc2[nH]cc(C(F)(F)F)c12 [Compound 1, (4-((4-(ethylamino)-3-(trifluoromethyl)-1H-pyrrolo[2,3-b]pyridine-6-yl)amino)-3-methoxyphenyl)(4-morpholinopiperidine-1-yl)methanone], which inhibition at 1 µM (ALK(L1196M)) is on record?
Answer: ≥ 59%

Question: And the inhibition at 1 µM (CAMK2D)?
Answer: 40 to 59%

Question: And the inhibition at 1 µM (CSNK1A1)?
Answer: 40 to 59%

Question: And the inhibition at 1 µM [1]?
Answer: 40 to 59%

Question: And the inhibition at 1 µM (JNK1)?
Answer: ≥ 59%

Question: And the inhibition at 1 µM (JNK2)?
Answer: 40 to 59%

Question: And the inhibition at 1 µM (JNK3)?
Answer: 40 to 59%

Question: And the inhibition at 1 µM (LRRK2)?
Answer: 40 to 59%

Question: And the inhibition at 1 µM (MYLK)?
Answer: ≥ 59%

Question: And the inhibition at 1 µM (PHKG1)?
Answer: ≥ 59%

Question: And the inhibition at 1 µM (PLK4)?
Answer: 40 to 59%

Question: What about the “expression of IL-6” value (THP-1 cells) of the same compound?
Answer: effectively inhibited

Question: And the “expression of TNF-α” value (THP-1 cells)?
Answer: effectively inhibited

Question: What about the “weight of bowel tissue” value ([2]; FIG. 6) of the same compound?
Answer: weight reduction

Question: What about the “thickness of lamina propria” value ([2]; H&E, FIG. 5) of the same compound?
Answer: decreased in thickness

Question: And the MPO levels ([2]; bowel tissue, vs control not treated, FIG. 6)?
Answer: lower

Question: And the “MS (1 μM) (% remaining during 30 min) Rat” value [3]?
Answer: 20%

Question: And the “CYP (10 μM) (% of control activity 1A2)” value (CYP 1A2)?
Answer: 86%

Question: And the “CYP (10 μM) (% of control activity 2C19)” value (CYP 2C19)?
Answer: 84%

Question: What about the “CYP (10 μM) (% of control activity 2C9)” value (CYP 2C9) of the same compound?
Answer: 74%

Question: What about the “CYP (10 μM) (% of control activity 2D6)” value (CYP 2D6) of the same compound?
Answer: 92%

Question: What about the “CYP 3A4 enzyme inhibition activity (in words)” value (CYP 3A4) of the same compound?
Answer: almost no enzyme inhibition activity

Question: And the “CYP (10 μM) (% of control activity 3A4)” value (CYP 3A4; 10 μM)?
Answer: 72%

Question: And the IC50 (hERG)?
Answer: 4.39 µM

Question: And the “cardiac toxicity (hERG, in words)” value (hERG)?
Answer: excellent safety in terms of cardiac toxicity

Question: And the “Plasma stability (% remaining, 30 min)” value ([4]; 30 min)?
Answer: 100%

Question: What about the “Plasma stability (% remaining, 120 min)” value ([4]; 120 min) of the same compound?
Answer: 97.2%

Question: And the IMQ-induced ear swelling ([5]; 0.3, 1% and 3% topical 20 μL/mouse QD x 9 days, Day 6 to Day 10, dose-dependent, vs no treatment and vehicle)?
Answer: moderate to significant (p<0.05) inhibition

Question: What about the “severity of skin lesions (histopathological examination of the ear skin)” value ([5]; 3% topical, vs no treatment group and vehicle group) of the same compound?
Answer: attenuated significantly

Question: What about the “protective effects in IMQ-induced psoriasis-like inflammation (ear swelling, ear weight, histopathological result)” value ([5]; 3%, high dose, 20 μL/mouse QD×9 days topically) of the same compound?
Answer: significant (p<0.05) protective effects

Question: And the “protective effects on IMQ-induced psoriasis-like inflammation (ear swelling)” value ([6]; 45 and 60 mg/kg PO BID×9 days)?
Answer: significantly (p<0.05) protective effects

Question: And the IMQ-induced ear swelling ([6]; 45 and 60 mg/kg oral gavage BID 9 days, Day 8 to Day 10, vs vehicle group)?
Answer: statistically (p<0.05) significant inhibition
